Values joined by “and” are separate entries in the source; they are usually repeats but may differ in a detail not shown here. Equal values may be shown once.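 Grown in 96-well plates, cells were treated for 48 hours with each compound at five concentrations. Insufficient inhibition: endpoint recorded as highest concentration tested. The concentration for 50% growth inhibition is given as GI50. TGI denotes the concentration required for complete inhibition of growth.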
What was measured:
Test in all cases: NCI-60 cell line screen, 48 h
BT-549 breast = tested on: BT-549 breast
DU-145 prostate = tested on: DU-145 prostate
HOP-92 NSCLC = tested on: HOP-92 NSCLC
HS 578T breast = tested on: HS 578T breast
MCF7 breast = tested on: MCF7 breast
MDA-MB-231 breast = tested on: MDA-MB-231 breast
MDA-MB-435 = tested on: MDA-MB-435
NCI-H226 lung = tested on: NCI-H226 lung
NCI-H23 lung = tested on: NCI-H23 lung
NCI/ADR-RES ovarian = tested on: NCI/ADR-RES ovarian
PC-3 prostate = tested on: PC-3 prostate
T-47D breast = tested on: T-47D breast
UACC-257 melanoma = tested on: UACC-257 melanoma
786-0 renal = tested on: 786-0 renal
A498 renal = tested on: A498 renal
A549 NSCLC = tested on: A549 NSCLC
ACHN renal = tested on: ACHN renal
CAKI-1 renal = tested on: CAKI-1 renal
COLO 205 colon = tested on: COLO 205 colon
EKVX NSCLC = tested on: EKVX NSCLC
HCC-2998 colon = tested on: HCC-2998 colon
HCT-116 colon = tested on: HCT-116 colon
HCT-15 colon = tested on: HCT-15 colon
HL-60(TB) leukemia = tested on: HL-60(TB) leukemia
HOP-62 NSCLC = tested on: HOP-62 NSCLC
HT29 colon = tested on: HT29 colon
IGROV1 ovarian = tested on: IGROV1 ovarian
K-562 leukemia = tested on: K-562 leukemia
KM12 colon = tested on: KM12 colon
LOX IMVI melanoma = tested on: LOX IMVI melanoma
M14 melanoma = tested on: M14 melanoma
MOLT-4 leukemia = tested on: MOLT-4 leukemia
NCI-H460 lung = tested on: NCI-H460 lung
NCI-H522 lung = tested on: NCI-H522 lung
OVCAR-3 ovarian = tested on: OVCAR-3 ovarian
OVCAR-5 ovarian = tested on: OVCAR-5 ovarian
OVCAR-8 ovarian = tested on: OVCAR-8 ovarian
RPMI-8226 leukemia = tested on: RPMI-8226 leukemia
RXF 393 renal = tested on: RXF 393 renal
SF-268 CNS = tested on: SF-268 CNS
SF-295 CNS = tested on: SF-295 CNS
SF-539 CNS = tested on: SF-539 CNS
SK-MEL-2 melanoma = tested on: SK-MEL-2 melanoma
SK-MEL-28 melanoma = tested on: SK-MEL-28 melanoma
SK-MEL-5 melanoma = tested on: SK-MEL-5 melanoma
SK-OV-3 ovarian = tested on: SK-OV-3 ovarian
SN12C renal = tested on: SN12C renal
SNB-19 CNS = tested on: SNB-19 CNS
SNB-75 CNS = tested on: SNB-75 CNS
SW-620 colon = tested on: SW-620 colon
TK-10 renal = tested on: TK-10 renal
U251 CNS = tested on: U251 CNS
UACC-62 melanoma = tested on: UACC-62 melanoma
UO-31 renal = tested on: UO-31 renal
MALME-3M melanoma = tested on: MALME-3M melanoma
OVCAR-4 ovarian = tested on: OVCAR-4 ovarian

C/C=C/CC(C)C(O)C1C(=O)NC(CC)C(=O)N(C)CC(=O)N(C)C(CC(C)C)C(=O)NC(C(C)C)C(=O)N(C)C(CC(C)C)C(=O)NC(C)C(=O)NC(C)C(=O)N(C)C(CC(C)C)C(=O)N(C)C(CC(C)C)C(=O)N(C)C(C(C)C)C(=O)N1C (stereo not given)
GI50 (BT-549 breast): 2020 nM
TGI (BT-549 breast): 6920 nM
GI50 (DU-145 prostate): 1430 nM
TGI (DU-145 prostate): > 32500 nM
GI50 (HOP-92 NSCLC): 1090 nM
TGI (HOP-92 NSCLC): 9020 nM and 14800 nM
GI50 (HS 578T breast): 3360 nM
TGI (HS 578T breast): 28200 nM
GI50 (MCF7 breast): 2710 nM
TGI (MCF7 breast): > 32500 nM
GI50 (MDA-MB-231 breast): 3790 nM
TGI (MDA-MB-231 breast): 9570 nM
GI50 (MDA-MB-435): 609 nM
TGI (MDA-MB-435): 4620 nM
GI50 (NCI-H226 lung): 2290 nM
TGI (NCI-H226 lung): 6660 nM and 13800 nM
GI50 (NCI-H23 lung): 1200 nM
TGI (NCI-H23 lung): > 32500 nM and 28600 nM
GI50 (NCI/ADR-RES ovarian): 1440 nM
TGI (NCI/ADR-RES ovarian): > 32500 nM
GI50 (PC-3 prostate): 970 nM
TGI (PC-3 prostate): > 32500 nM
GI50 (T-47D breast): 842 nM
TGI (T-47D breast): 5320 nM
GI50 (UACC-257 melanoma): 747 nM
TGI (UACC-257 melanoma): 5570 nM and 8670 nM

CO[C@@H]1CC(=O)C2(CC(=O)O[C@@H]2/C=C(\C)CCC=C(C)C)C[C@@H]1O (stereo not given in full)
GI50 (786-0 renal): 761 nM
TGI (786-0 renal): 1580 nM
GI50 (A498 renal): 1660 nM
TGI (A498 renal): 4630 nM
GI50 (A549 NSCLC): 1650 nM
TGI (A549 NSCLC): > 12200 nM
GI50 (ACHN renal): 817 nM
TGI (ACHN renal): 1780 nM
GI50 (BT-549 breast): 492 nM
TGI (BT-549 breast): 2340 nM
GI50 (CAKI-1 renal): 870 nM
TGI (CAKI-1 renal): 2740 nM
GI50 (COLO 205 colon): 1070 nM
TGI (COLO 205 colon): 2110 nM
GI50 (DU-145 prostate): 577 nM
TGI (DU-145 prostate): 1550 nM
GI50 (EKVX NSCLC): 1420 nM
TGI (EKVX NSCLC): 4510 nM
GI50 (HCC-2998 colon): 214 nM
TGI (HCC-2998 colon): 814 nM
GI50 (HCT-116 colon): 489 nM
TGI (HCT-116 colon): 1140 nM
GI50 (HCT-15 colon): 560 nM
TGI (HCT-15 colon): 1550 nM
GI50 (HL-60(TB) leukemia): 409 nM
TGI (HL-60(TB) leukemia): 2320 nM
GI50 (HOP-62 NSCLC): 1060 nM
TGI (HOP-62 NSCLC): 2640 nM
GI50 (HOP-92 NSCLC): 840 nM
TGI (HOP-92 NSCLC): 2970 nM
GI50 (HS 578T breast): 4740 nM
TGI (HS 578T breast): > 50000 nM
GI50 (HT29 colon): 1350 nM
TGI (HT29 colon): > 50000 nM
GI50 (IGROV1 ovarian): 1090 nM
TGI (IGROV1 ovarian): 4030 nM
GI50 (K-562 leukemia): 829 nM
TGI (K-562 leukemia): > 50000 nM
GI50 (KM12 colon): 1030 nM
TGI (KM12 colon): 3970 nM
GI50 (LOX IMVI melanoma): 634 nM
TGI (LOX IMVI melanoma): 1570 nM
GI50 (M14 melanoma): 709 nM
TGI (M14 melanoma): 1550 nM
GI50 (MCF7 breast): 199 nM
TGI (MCF7 breast): 1170 nM
GI50 (MDA-MB-231 breast): 642 nM
TGI (MDA-MB-231 breast): 1660 nM
GI50 (MDA-MB-435): 803 nM
TGI (MDA-MB-435): 3590 nM
GI50 (MOLT-4 leukemia): 233 nM
TGI (MOLT-4 leukemia): > 50000 nM
GI50 (NCI-H226 lung): 755 nM
TGI (NCI-H226 lung): 2050 nM
GI50 (NCI-H23 lung): 358 nM
TGI (NCI-H23 lung): 1140 nM
GI50 (NCI-H460 lung): 744 nM
GI50 (NCI-H522 lung): 1820 nM
TGI (NCI-H522 lung): > 50000 nM
GI50 (NCI/ADR-RES ovarian): 487 nM
TGI (NCI/ADR-RES ovarian): 1510 nM
GI50 (OVCAR-3 ovarian): 839 nM
TGI (OVCAR-3 ovarian): 2280 nM
GI50 (OVCAR-5 ovarian): 769 nM
TGI (OVCAR-5 ovarian): 1960 nM
GI50 (OVCAR-8 ovarian): 1320 nM
TGI (OVCAR-8 ovarian): > 10500 nM
GI50 (PC-3 prostate): 378 nM
TGI (PC-3 prostate): 1440 nM
GI50 (RPMI-8226 leukemia): 118 nM
TGI (RPMI-8226 leukemia): 432 nM
GI50 (RXF 393 renal): 818 nM
TGI (RXF 393 renal): 2920 nM
GI50 (SF-268 CNS): 1180 nM
TGI (SF-268 CNS): 4740 nM
GI50 (SF-295 CNS): 1430 nM
TGI (SF-295 CNS): > 11700 nM
GI50 (SF-539 CNS): 502 nM
TGI (SF-539 CNS): 1560 nM
GI50 (SK-MEL-2 melanoma): 1390 nM
TGI (SK-MEL-2 melanoma): 4880 nM
GI50 (SK-MEL-28 melanoma): 830 nM
TGI (SK-MEL-28 melanoma): 1860 nM
GI50 (SK-MEL-5 melanoma): 913 nM
TGI (SK-MEL-5 melanoma): 2130 nM
GI50 (SK-OV-3 ovarian): 1620 nM
TGI (SK-OV-3 ovarian): 5300 nM
GI50 (SN12C renal): 705 nM
TGI (SN12C renal): 1640 nM
GI50 (SNB-19 CNS): 1230 nM
TGI (SNB-19 CNS): 4110 nM
GI50 (SNB-75 CNS): 1200 nM
TGI (SNB-75 CNS): 3660 nM
GI50 (SW-620 colon): 754 nM
TGI (SW-620 colon): > 50000 nM
GI50 (T-47D breast): 522 nM
TGI (T-47D breast): 1260 nM
GI50 (TK-10 renal): 1260 nM
TGI (TK-10 renal): 3350 nM
GI50 (U251 CNS): 672 nM
TGI (U251 CNS): 1400 nM
GI50 (UACC-257 melanoma): 883 nM
TGI (UACC-257 melanoma): 2520 nM
GI50 (UACC-62 melanoma): 812 nM
TGI (UACC-62 melanoma): 1710 nM
GI50 (UO-31 renal): 1190 nM

Cc1ccnc2[nH]c(-c3ccccc3)cc(=O)c12
TGI (786-0 renal): > 100000 nM
TGI (A549 NSCLC): > 100000 nM
TGI (ACHN renal): 63300 nM
TGI (BT-549 breast): > 100000 nM
TGI (DU-145 prostate): > 100000 nM
GI50 (EKVX NSCLC): > 100000 nM
TGI (EKVX NSCLC): > 100000 nM
TGI (HCT-116 colon): 10600 nM
TGI (HOP-92 NSCLC): 93700 nM
TGI (HS 578T breast): > 100000 nM
TGI (HT29 colon): 25.9 nM
GI50 (IGROV1 ovarian): 1840 nM
TGI (IGROV1 ovarian): > 100000 nM
TGI (KM12 colon): 12800 nM
TGI (MALME-3M melanoma): > 100000 nM
GI50 (MDA-MB-231 breast): 134 nM
TGI (MOLT-4 leukemia): > 100000 nM
GI50 (NCI-H226 lung): 1460 nM
TGI (NCI-H226 lung): 5960 nM and 32500 nM
GI50 (NCI-H23 lung): 69.2 nM
TGI (NCI-H460 lung): > 100000 nM
TGI (NCI-H522 lung): 192 nM
TGI (OVCAR-4 ovarian): > 100000 nM
GI50 (OVCAR-5 ovarian): 20900 nM
TGI (OVCAR-5 ovarian): 51200 nM
GI50 (OVCAR-8 ovarian): 19.3 nM
TGI (OVCAR-8 ovarian): > 100000 nM
TGI (PC-3 prostate): > 100000 nM
GI50 (RPMI-8226 leukemia): 27.8 nM
TGI (RXF 393 renal): 18.4 nM
GI50 (SF-268 CNS): 17.1 nM
TGI (SF-268 CNS): > 100000 nM
TGI (SK-MEL-28 melanoma): > 100000 nM
GI50 (SN12C renal): 39.9 nM
TGI (SW-620 colon): > 100000 nM
TGI (T-47D breast): > 100000 nM
TGI (TK-10 renal): 58900 nM
TGI (U251 CNS): > 100000 nM

— PubChem BioAssay (NCI)
